The values that follow come from article PMC7391724 (Scientific Reports, 2020).

On the set-up of data set [1]: method as in PMID 19276288. To be noted: clinical studies, untargeted agent ref 19; cited from earlier work.
A further data set concerns KB tumor xenografts. As to the kind of experiment: KB tumor xenograft in nu/nu mice. In kind it is in vivo. The note with it: SJG-136 0.3 mg/kg SIW x 2 weeks. As for the experimental part: Four- to eight-week-old female nu/nu mice and rats (Harlan Sprague Dawley, Inc.), were maintained on a standard 12-h light–dark cycle and fed ad libitum with a low-folate chow (Harlan Teklad diet #TD.01013, Madison, WI) for the duration of dosing and 1 week post dosing schedule. Mice and rats were then switched to Teklad Global 18% Rodent diet (Harlan Teklad diet #2018S) during the monitoring phase of the study. Parental KB, KB-CR2000 or KB-PR10 cells (1 × 10^6/100 µL per nu/nu mouse and 5 × 10^6/200 µL per nu/nu rat) were injected into the subcutis of the dorsal medial area. Mice were divided into groups of 5 and rats in groups of 3–4, and freshly prepared test articles were injected through the lateral tail vein under sterile conditions in a volume of 200 μL/20 g of PBS. In mice, intravenous treatments typically initiated on day 7 PTI when KB tumors were approximately 111–168 mm^3 in volume, on day 5 PTI when the KB-PR tumors were about 205–243 mm^3, and on day 6 PTI when the KB-CR tumors were around 98 to 168 mm^3. Treatments in rats were started on day 10 PTI when KB tumors were approximately 412–704 mm^3 in volume.
Animals in the control groups received no treatment. Growth of each subcutaneous tumor was followed by measuring the tumor 3 times per week during treatment and twice per week thereafter, until a maximum volume of 1,500 mm^3 for mice and 15,000 mm^3 for rats were reached. Tumors were measured in two perpendicular directions using Vernier calipers, and their volumes were calculated as V = 0.5 × L × W^2, where L = measurement of longest axis in mm and W = measurement of axis perpendicular to L in mm[16]. As a general measure of gross toxicity, changes in body weights were determined on the same schedule as tumor volume measurements. Survival of animals was monitored daily. Animals that were moribund (or unable to reach food or water) were euthanized by CO2 asphyxiation. Individual tumor response endpoints were reported in terms of tumor volume change. A partial response (PR) was defined as volume regression > 50% but with measurable tumor (> 2 mm^3) remaining at all times. Complete response (CR) was defined as a disappearance of measurable tumor mass (< 2 mm^3) at some point within 90 days after tumor implantation. Cures were defined as CRs without tumor regrowth within the 90-day study time frame.

Regarding `C=C1C[C@H]2C=Nc3cc(OCCCOc4cc5c(cc4OC)C(=O)N4CC(=C)C[C@H]4C=N5)c(OC)cc3C(=O)N2C1` [SJG-136], the clinical toxicity entry in data set [1] is “dose-limiting hepatotoxicity and vascular leak syndrome”. In the data set with KB tumor xenografts, the average weight loss was ~ 10%. The “deaths, number of animals” value with KB tumor xenografts (at 2 weeks post start of treatment, n=5) was “one”. In the data set on KB tumor xenografts (n=5), the “CR (complete response), number of animals” value turned out to be 0; the “Cures, number of animals” value is reported as 2; the “PR (partial response), number of animals” value is given as 2.
